{"source": "patent US11331289B2", "about": "“Antimicrobial composition” (priority 2017, dated 2022)", "test_system": "MRSA 16110", "experiment": "Time-killing curve, inoculum 10^6 CFU/ml (MIC 1 μg/ml)", "format": "cell-based, Staphylococcus aureus", "protocol": "The objective of this study is to assess in vitro the time-killing curves of oxyclozanide against four strains of Methicillin-Resistant Staphylococcus from dogs.\nTwo Methicillin-Resistant Staphylococcus aureus (MRSA) and two Methicillin-Resistant Staphylococcus pseudintermedius (MRSP) isolated from the clinics have been tested.\nThe assessment of time-killing curves has been realized by a broth macrodilution method (Mueller-Hinton II Broth).\nOxyclozanide is diluted in (DMSO) into sterile tubes in order to obtain the following concentrations from 800 to 6.25 μg/ml. Those concentrations and stock standard solution are then diluted (1/10) in Mueller-Hinton II Broth in order to obtain the following concentrations from […] (See Table 2).\nEach operation is performed under sterile conditions. Each working standard solution (10*the final active ingredient concentration) is distributed in tubes (1 ml, for a final volume of 10 ml after addition of 9 ml of inoculum). One tube without active ingredient is used as growth control (Concentration=0).\nBacterial isolates are sub-cultured from one cryobead on Columbia agar supplemented with 5% of blood. Pure cultures are incubated during 18-24 hours at 37° C. Three to five isolated colonies of similar appearance are selected from a previous culture and transferred into tubes containing 9 ml of Mueller-Hinton II Broth. The broth is incubated during 12-18 hours at 37° C. 0.5 to 1 ml of this broth is inoculated to another Mueller-Hinton II Broth 9 ml tube which is incubated during 3 to 4 hours at 37° C. to reach the exponential growth phase. The bacterial inoculum grown exponential phase is suspended to an optical density of McFarland standard scale 0.5 equivalent to a bacterial density of 10^8 CFU/ml and then adjusted to a concentration of about 5.10^5 CFU/ml as indicated by the guideline CLSI M26-A and to a second inoculum tested: 10^6 CFU/ml.\n9 ml of bacterial inoculum grown to exponential phase is added to 1 ml of active ingredient (or Mueller Hinton II Broth for the growth control). Tubes are incubated at 35° C. during 24 hours.\nAt times 0, 2, 4, 6 and 24 hours, 100 μl of broth of each tube is sampled and diluted in microplates:\nEach well is re-cultured by streaking 10 μl on Columbia agar supplemented with 5% of blood. Plates are incubated at 37° C. during 18-24 hours incubation. Thus, residual bacterial concentrations are determined (CFU/ml). Results are expressed in log10 values of CFU/ml over-time in broth. Due to the procedure used, the minimal bacterial concentration that can be assessed is 10^2 CFU/ml.", "data": [{"smiles": "O=C(Nc1cc(Cl)cc(Cl)c1O)c1c(O)c(Cl)cc(Cl)c1Cl", "note": "[Oxyclozanide]", "values": [{"measurement": "Counting results", "setting": "1 MIC, 0 h", "value": "2.000E+06", "unit": "CFU/ml"}, {"measurement": "Counting results", "setting": "1 MIC, 2 h", "value": "8.300E+04", "unit": "CFU/ml"}, {"measurement": "Counting results", "setting": "1 MIC, 4 h", "value": "3.400E+04", "unit": "CFU/ml"}, {"measurement": "Counting results", "setting": "1 MIC, 6 h", "value": "3.500E+03", "unit": "CFU/ml"}, {"measurement": "Counting results", "setting": "1 MIC, 24 h", "value": "7.900E+06", "unit": "CFU/ml"}, {"measurement": "Counting results", "setting": "2 MIC, 0 h", "value": "2.000E+06", "unit": "CFU/ml"}, {"measurement": "Counting results", "setting": "2 MIC, 2 h", "value": "4.000E+02", "unit": "CFU/ml"}, {"measurement": "Counting results", "setting": "2 MIC, 4 h", "value": "2.000E+02", "unit": "CFU/ml"}, {"measurement": "Counting results", "setting": "2 MIC, 6 h", "value": "1.000E+02", "unit": "CFU/ml"}, {"measurement": "Counting results", "setting": "2 MIC, 24 h", "value": "1.000E+02", "unit": "CFU/ml"}, {"measurement": "Counting results", "setting": "4 MIC, 0 h", "value": "2.000E+06", "unit": "CFU/ml"}, {"measurement": "Counting results", "setting": "4 MIC, 2 h", "value": "1.000E+02", "unit": "CFU/ml"}, {"measurement": "Counting results", "setting": "4 MIC, 4 h", "value": "1.000E+02", "unit": "CFU/ml"}, {"measurement": "Counting results", "setting": "4 MIC, 6 h", "value": "1.000E+02", "unit": "CFU/ml"}, {"measurement": "Counting results", "setting": "4 MIC, 24 h", "value": "1.000E+02", "unit": "CFU/ml"}, {"measurement": "Counting results", "setting": "8 MIC, 0 h", "value": "2.000E+06", "unit": "CFU/ml"}, {"measurement": "Counting results", "setting": "8 MIC, 2 h", "value": "1.000E+02", "unit": "CFU/ml"}, {"measurement": "Counting results", "setting": "8 MIC, 4 h", "value": "1.000E+02", "unit": "CFU/ml"}, {"measurement": "Counting results", "setting": "8 MIC, 6 h", "value": "1.000E+02", "unit": "CFU/ml"}, {"measurement": "Counting results", "setting": "8 MIC, 24 h", "value": "1.000E+02", "unit": "CFU/ml"}, {"measurement": "Counting results", "setting": "16 MIC, 0 h", "value": "2.000E+06", "unit": "CFU/ml"}, {"measurement": "Counting results", "setting": "16 MIC, 2 h", "value": "2.000E+02", "unit": "CFU/ml"}, {"measurement": "Counting results", "setting": "16 MIC, 4 h", "value": "1.000E+02", "unit": "CFU/ml"}, {"measurement": "Counting results", "setting": "16 MIC, 6 h", "value": "1.000E+02", "unit": "CFU/ml"}, {"measurement": "Counting results", "setting": "16 MIC, 24 h", "value": "1.000E+02", "unit": "CFU/ml"}, {"measurement": "Time to obtain bactericidal effect at 4 MIC", "setting": "16110/10^6 CFU/ml, >=3 log10 decrease in CFU", "value": 2, "unit": "h"}, {"measurement": "Counting results", "setting": "¼ MIC, 0 h", "value": "2.000E+06", "unit": "CFU/ml"}, {"measurement": "Counting results", "setting": "¼ MIC, 2 h", "value": "8.000E+06", "unit": "CFU/ml"}, {"measurement": "Counting results", "setting": "¼ MIC, 4 h", "value": "4.000E+07", "unit": "CFU/ml"}, {"measurement": "Counting results", "setting": "¼ MIC, 6 h", "value": "2.400E+07", "unit": "CFU/ml"}, {"measurement": "Counting results", "setting": "¼ MIC, 24 h", "value": "4.100E+07", "unit": "CFU/ml"}, {"measurement": "Counting results", "setting": "½ MIC, 0 h", "value": "2.000E+06", "unit": "CFU/ml"}, {"measurement": "Counting results", "setting": "½ MIC, 2 h", "value": "6.900E+05", "unit": "CFU/ml"}, {"measurement": "Counting results", "setting": "½ MIC, 4 h", "value": "4.300E+06", "unit": "CFU/ml"}, {"measurement": "Counting results", "setting": "½ MIC, 6 h", "value": "4.800E+07", "unit": "CFU/ml"}, {"measurement": "Counting results", "setting": "½ MIC, 24 h", "value": "3.700E+07", "unit": "CFU/ml"}]}]}
